Here are results for 65 compounds from ChEMBL document CHEMBL3046338, “Solid-Supported Parallel Synthesis of Hydroxybenzylamine Libraries Possessing Antileishmial Activity” (Med Chem Res, 2005).

Holding throughout (format): functional, organism-based
The test system of one experiment is Leishmania donovani. The experiment in a line: Antileishmanial activity against Leishmania donovani promastigotes after 72 hr by alamar blue assay. (In general: Alamar Blue is a resazurin reagent that responds to reducing activity.)
For experiment [1], the system named is Plasmodium falciparum. The experiment in a line: Antimalarial activity against chloroquine-resistant Plasmodium falciparum W2 IndoChina after 48 hr by parasite LDH assay.
Experiment [2] relates to Plasmodium falciparum. Nature of the experiment: Antimalarial activity against chloroquine-sensitive Plasmodium falciparum D6 SierraLeone after 48 hr by parasite LDH assay.

Regarding `COc1ccc(CN(Cc2ccc(Br)cc2)c2cccnc2)cc1O`, the concentration giving a half-maximal response (EC50) (in general, the concentration at which the effect is half-maximal) in the experiment with Leishmania donovani was 32.6 µM. On the same count and under the same terms, the figure for `COc1ccc(CN(CCc2ccccc2)c2cccnc2)cc1O` is 18.5 µM. Compound `COc1ccc(CN(CCCc2ccccc2)c2cccnc2)cc1O` came in with a concentration for a half-maximal effect (EC50) in the experiment on Leishmania donovani of 15.8 µM.

Take `COc1ccc(CN(CCc2c[nH]c3ccccc23)Cc2ccccc2)cc1O`: in the experiment with Leishmania donovani, the EC50 came out at 9.31 µM.

`COc1ccc(CN(CCc2c[nH]c3ccccc23)Cc2ccc(Br)cc2)cc1O` came in with a half-maximal effective concentration (EC50) in the experiment with Leishmania donovani of 9.88 µM. On the same count and under the same terms, the figure for `COc1ccc(CN(CCc2ccccc2)CCc2c[nH]c3ccccc23)cc1O` is 16.2 µM; for `COc1ccc(CN(CCCc2ccccc2)CCc2c[nH]c3ccccc23)cc1O` it is 9.89 µM. With `COc1ccc(N(Cc2ccc(C)cc2)Cc2ccc(OC)c(O)c2)cc1`, the concentration giving a half-maximal response (EC50) in the experiment with Leishmania donovani came to 65.1 µM. On to `COc1ccc(N(Cc2ccc(C(C)(C)C)cc2)Cc2ccc(OC)c(O)c2)cc1`, for which the EC50 with Leishmania donovani came out at 61.6 µM. `COc1ccc(CN(Cc2ccc(OC)c(O)c2)c2ccc(OC)cc2)cc1`: in the experiment with Leishmania donovani, a half-maximal effect (EC50) was put at 71.2 µM. As for `COc1ccc(CN(CCCN2CCOCC2)Cc2ccccc2)cc1O`, the EC50 with Plasmodium falciparum [1] and with Plasmodium falciparum [2] was 12.8 µM each time.

Take `COc1ccc(CN(CCCN2CCOCC2)Cc2ccc(Br)cc2)cc1O`: the EC50 stood at 10.6 µM with Plasmodium falciparum [1], 10.6 µM in the experiment on Plasmodium falciparum [2] and 51.2 µM in the experiment on Leishmania donovani. As for `COc1ccc(CN(CCc2ccccc2)CCc2ccc(Br)cc2)cc1O`, the EC50 in the experiment with Leishmania donovani came to 59 µM. Still for that read-out and setting: with `COc1ccc(CN(CCCc2ccccc2)CCc2ccc(Br)cc2)cc1O` the figure was 28.6 µM; with `CCOC(=O)CCN(CCc1ccc(Br)cc1)Cc1ccc(OC)c(O)c1`, 25.2 µM; with `CCOC(=O)CN(CCc1ccc(Br)cc1)Cc1ccc(OC)c(O)c1`, 26.1 µM. For the compound `COc1ccc(CN(CCc2ccc(Br)cc2)CC(=O)OC(C)(C)C)cc1O`, the 50% effective concentration (EC50) in the experiment with Leishmania donovani was found to be 11.1 µM. The same measure, in the same setting: the figure for `CCOC(=O)CCCN(CCc1ccc(Br)cc1)Cc1ccc(OC)c(O)c1` is 37.8 µM.

With `CCCCN(CCc1ccc(Br)cc1)Cc1ccc(OC)c(O)c1`, the EC50 is 7.14 µM with Plasmodium falciparum [1] and 125 µM in the experiment with Leishmania donovani. In the experiment on Leishmania donovani, `COc1ccc(CN(CCc2ccccc2)CCc2ccccc2)cc1O` gave an EC50 of 20.8 µM. In turn, `COc1ccc(CN(CCCc2ccccc2)CCc2ccccc2)cc1O` had an EC50 in the experiment on Leishmania donovani of 14.1 µM. `COc1ccc(CN(CCc2ccccc2)CC(=O)OC(C)(C)C)cc1O`: it took 33.6 µM to reach a half-maximal effect with Leishmania donovani (EC50). Same read-out and setting: the figure for `CCOC(=O)CCCN(CCc1ccccc1)Cc1ccc(OC)c(O)c1` is 25.6 µM; for `COc1ccc(CN(Cc2ccccc2)c2cccnc2)cc1O` it is 53.1 µM. With `COc1ccc(CN(CCc2ccc(Br)cc2)Cc2ccc([N+](=O)[O-])cc2)cc1O`, the concentration for a half-maximal effect (EC50) was determined as 9.55 µM in the experiment with Plasmodium falciparum [2] and 46.7 µM with Leishmania donovani. For `COc1ccc(CN(CCc2ccccc2)Cc2ccc(F)cc2)cc1O`, the 50% effective concentration (EC50) in the experiment on Leishmania donovani was found to be 62.9 µM. On the same count and under the same terms, with `COc1ccc(CN(CCc2ccccc2)Cc2cccc(Cl)c2)cc1O` the figure was 70.7 µM; with `COc1ccc(CN(CCc2ccccc2)Cc2ccc(Cl)cc2)cc1O`, 68.1 µM. For `COc1ccc(CN(CCc2ccccc2)Cc2ccc(Cl)c(Cl)c2)cc1O`, in the experiment on Leishmania donovani, the response was half-maximal at 50.4 µM (EC50). For `COc1ccc(CN(CCc2ccccc2)Cc2ccc(Cl)cc2Cl)cc1O`, the midpoint of the response in the experiment with Leishmania donovani, the EC50, lay at 60.1 µM. Still for that read-out and setting: with `COc1ccc(CN(CCc2ccccc2)Cc2c(F)c(F)c(F)c(F)c2F)cc1O` the figure was 48 µM; with `COc1ccc(CN(CCc2ccc(Br)cc2)Cc2ccc(OC)c(O)c2)cc1`, 32.9 µM; with `COc1ccc(CN(CCc2ccccc2)Cc2ccc(C)cc2)cc1O`, 19.9 µM.

In the case of `COc1ccc(CN(CCc2ccccc2)Cc2ccc(C(C)(C)C)cc2)cc1O`, in the experiment with Leishmania donovani, the EC50 stood at 18.6 µM. Same read-out and setting: with `COc1ccc(CN(CCc2ccccc2)Cc2ccc(OC)c(O)c2)cc1` the figure was 18.8 µM; with `COc1ccc(CN(Cc2ccccc2)c2cc(OC)c(OC)c(OC)c2)cc1O`, 29.3 µM; with `COc1ccc(CN(Cc2ccc(Br)cc2)c2cc(OC)c(OC)c(OC)c2)cc1O`, 45.1 µM. Same read-out and setting: the figure for `COc1ccc(N(Cc2ccccc2)Cc2ccc(OC)c(O)c2)cc1` is 109 µM. Regarding `COc1ccc(N(Cc2ccc(Br)cc2)Cc2ccc(OC)c(O)c2)cc1`, the values for the concentration giving a half-maximal response (EC50) with Plasmodium falciparum [1], in the experiment on Plasmodium falciparum [2] and in the experiment on Leishmania donovani were 11.2 µM, 11.2 µM and 25.8 µM, respectively. For `COc1ccc(N(Cc2ccc(F)cc2)Cc2ccc(OC)c(O)c2)cc1`, in the experiment with Leishmania donovani, a half-maximal response (EC50) required 84.4 µM. `COc1ccc(N(Cc2ccc(Cl)cc2)Cc2ccc(OC)c(O)c2)cc1` displayed an EC50 with Leishmania donovani of 59.8 µM. Same read-out and setting: the figure for `COc1ccc(CN(CCc2ccc(Br)cc2)Cc2ccc(Cl)cc2Cl)cc1O` is 48.5 µM; for `COc1ccc(CN(Cc2ccccc2)Cc2ccc(Br)cc2)cc1O` it is 31.5 µM. The same measure, in the same setting: with `COc1ccc(CN(CCc2ccccc2)Cc2ccccc2)cc1O` the figure was 37.4 µM. As to `COc1ccc(CCN(Cc2ccccc2)Cc2ccc(OC)c(O)c2)cc1`, the figures for the half-maximal effective concentration (EC50) in the experiment on Plasmodium falciparum [1], in the experiment with Plasmodium falciparum [2] and in the experiment with Leishmania donovani were 12.6 µM, 12.6 µM and 50.3 µM, respectively. On to `COc1ccc(CN(Cc2ccccc2)c2ccc(Br)cc2)cc1O`, for which the EC50 with Leishmania donovani was 70.3 µM. `COc1ccc(CN(Cc2ccccc2)c2cccc(Cl)c2)cc1O`: the values for the EC50 in the experiment on Plasmodium falciparum [1], with Plasmodium falciparum [2] and in the experiment with Leishmania donovani were 13.5 µM, 13.5 µM and 39.6 µM, respectively.

Take `COc1ccc(CN(CCc2ccc(Br)cc2)Cc2ccccc2)cc1O`: the EC50 with Plasmodium falciparum [1] is 11.2 µM; in the experiment with Plasmodium falciparum [2] it was 6.58 µM; in the experiment on Leishmania donovani it was 11.8 µM.

On to `COc1ccc(CN(CCc2ccc(OC)c(OC)c2)Cc2ccccc2)cc1O`, for which the results for the concentration for a half-maximal effect (EC50) in the experiment with Plasmodium falciparum [1] and with Leishmania donovani were 11.7 µM and 54 µM, respectively.

As to `COc1ccc(CCN(Cc2ccc(Br)cc2)Cc2ccc(OC)c(O)c2)cc1`, the EC50 in the experiment with Plasmodium falciparum [1] came to 10.4 µM; with Leishmania donovani, 21.9 µM. With `COc1ccc(CN(Cc2ccc(Br)cc2)c2ccc(Br)cc2)cc1O`, the concentration for a half-maximal effect (EC50) with Leishmania donovani amounted to 33.5 µM.

Regarding `COc1ccc(CN(Cc2ccc(Br)cc2)c2cccc(Cl)c2)cc1O`, in the experiment with Leishmania donovani, the EC50 turned out to be 64.7 µM. As for `COc1ccc(CN(CCc2ccc(OC)c(OC)c2)Cc2ccc(Br)cc2)cc1O`, the EC50 with Plasmodium falciparum [1] worked out at 9.79 µM; with Leishmania donovani it was 39.1 µM. `COc1ccc(CN(CCc2ccc(Br)cc2)Cc2ccc(F)cc2)cc1O` gave a concentration for a half-maximal effect (EC50) with Leishmania donovani of 56.3 µM. The compound `COc1ccc(CN(CCc2ccc(Br)cc2)Cc2cccc(Cl)c2)cc1O` gave an EC50 in the experiment with Leishmania donovani of 45.6 µM. Same read-out and setting: with `COc1ccc(CN(CCc2ccc(Br)cc2)Cc2ccc(Cl)cc2)cc1O` the figure was 54.2 µM. As for `COc1ccc(CN(CCc2ccc(Br)cc2)Cc2ccc(Br)cc2)cc1O`, the half-maximal effective concentration (EC50) in the experiment on Plasmodium falciparum [1] was determined as 9.42 µM; with Plasmodium falciparum [2], 6.93 µM; in the experiment on Leishmania donovani, 11.9 µM. In the case of `COc1ccc(CN(CCc2ccc(Br)cc2)Cc2ccc(C)cc2)cc1O`, in the experiment with Leishmania donovani, the concentration giving a half-maximal response (EC50) is 29.5 µM. Still for that read-out and setting: with `COc1ccc(CN(CCc2ccc(Br)cc2)Cc2c(F)c(F)c(F)c(F)c2F)cc1O` the figure was 50.4 µM; with `COc1ccc(CN(CCc2ccc(Br)cc2)Cc2ccc(Cl)c(Cl)c2)cc1O`, 48.5 µM; with `COc1ccc(CN(CCc2ccc(Br)cc2)Cc2ccc(C(C)(C)C)cc2)cc1O`, 47.8 µM. On the same count and under the same terms, the figure for `C[C@@H]1[C@H](O)[C@@H](C)/C=C/C=C/C=C/C=C/C=C/C=C/C=C/[C@H](O[C@@H]2O[C@H](C)[C@@H](O)[C@H](N)[C@@H]2O)C[C@@H]2O[C@](O)(C[C@@H](O)C[C@@H](O)[C@H](O)CC[C@@H](O)C[C@@H](O)CC(=O)O[C@H]1C)C[C@H](O)[C@H]2C(=O)O` [AMPHOTERICIN B] is 0.01 µM. With `C[C@@H]1CC[C@H]2[C@@H](C)C(=O)O[C@@H]3O[C@@]4(C)CC[C@@H]1[C@]32OO4` [ARTEMISININ], the EC50 in the experiment on Plasmodium falciparum [1] and in the experiment on Plasmodium falciparum [2] was 0.02 µM each time. For the compound `CCN(CC)CCCC(C)Nc1ccnc2cc(Cl)ccc12` (centres undefined) [CHLOROQUINE], the EC50 in the experiment on Plasmodium falciparum [1] worked out at 0.31 µM. As for `N=C(N)c1ccc(OCCCCCOc2ccc(C(=N)N)cc2)cc1` [PENTAMIDINE], the concentration giving a half-maximal response (EC50) with Leishmania donovani worked out at 1.35 µM.
